This note sets out measurements from PMC11990898, “Novel Isatin–Chalcone Hybrid Molecules: Design, Synthesis and Anti-Neuroinflammatory Activity Evaluation” (Molecules, 2025).

Where “and” joins values, the source holds several entries; their conditions need not be identical. Identical values can stand only once.

In data set [1] the test system is NO release from LPS-stimulated BV2 cells. The experiment in a line: NO release inhibition in LPS-stimulated BV2 cells (Griess method). To be noted: for Nitrite (NO release amount): BV2 cells induced by LPS, Griess test; for Nitrite (NO release amount) / inhibition at 20 µM: compound at 20 μM; for IC50 / inhibition at 20 µM: Mus musculus, BV-2, LPS-stimulated BV2 cells; for IC50: 24 h; for inhibition at 20 µM: read-out: NO inhibition rate. The data set is classed as cell-based, mouse. The method, then:
BV2 cells stimulated by lipopolysaccharide (LPS) lead to an increase in NO release. Therefore, we used the inhibitory ability of the target compounds on NO as a preliminary method to evaluate their anti-neuroinflammatory properties. We evaluated the inhibitory ability of isatin–chalcone hybrid derivatives 4a–t on the release of NO from BV2 cells at 20 μM. The release amount of NO was detected by the Griess method, and the actual release amount of NO was calculated based on the experimental data.
BV2 cells were plated in 96-well microplates at 40,000 cells per well (100 μL/well) and incubated for 24 h. Then, 50 μL of LPS solution with a final concentration of 100 ng/mL and 50 μL of compounds (diluted with medium to a final concentration of 0.31–20 μM) were added, and each concentration had 3 parallel wells. The NO assay kit was used to carry out nitrite assays after 24 h. The 50 μL of culture medium was mixed with the GrisR1 (50 μL) and GrisR2 (50 μL) of the NO assay kit in another new 96-well plate. The absorbance was detected at 540 nm. The percentage of inhibition of NO was obtained from the following formula: [(Rlps − RB − RC)/(Rlps − RB)] × 100, where Rlps is the release amount of only the LPS-treated group, RB is the release amount of the normal control and RC is the release amount of the test compound and LPS-treated group. The IC50 values of test compounds were calculated by linear regression plots.

For another data set, the system named is BV2 microglial cells. Nature of the data set: Cell viability assay (MTS) on BV2 cells. To be noted: 24 h; for IC50: Mus musculus, BV-2, MTS; for cell viability: compound at 25 μM, MTS. The data set is classed as cell-based, mouse. The method, then: BV2 microglial cells (SCSP-5208, Cell Bank, Chinese Academy of Sciences, Shanghai, China) were incubated in high-glucose DMEM supplemented with 10% fetal bovine serum and 1% penicillin and streptomycin in a humidified atmosphere of 5% CO2 at 37 °C.
BV2 cells were plated in 96-well microplates at 20,000 cells per well (100 μL/well) and incubated for 24 h. Then, 100 μL of compounds (diluted with medium to a final concentration of 1.56–100 μM) was added, and each concentration had 3 parallel wells. After 24 h, the cell viability was measured by MTS assay. The absorbance was detected at 490 nm. The percentage of viability was obtained from the following formula: ODdrug-treated/ODnormal cells × 100. The IC50 values of test compounds were calculated by linear regression plots.

In the case of `CCOC(=O)CN1C(=O)/C(=C/C(=O)c2ccccc2)c2ccccc21` [Compound 4c, Ethyl (E)-2-(2-oxo-3-(2-oxo-2-phenylethylidene)indolin-1-yl)acetate], the “Nitrite (NO release amount)” value in data set [1] was determined as 19.3 ± 0.5 µM. For `CCOC(=O)CN1C(=O)/C(=C/C(=O)c2ccc(Br)cc2)c2ccccc21` [Compound 4m, Ethyl (E)-2-(3-(2-(4-bromophenyl)-2-oxoethylidene)-2-oxoindolin-1-yl)acetate], the “Nitrite (NO release amount)” value in data set [1] was found to be 18.6 ± 0.3 µM.

In the case of `O=C1Nc2ccccc2C1=O` [Isatin, 1H-indole-2,3-dione], the “Nitrite (NO release amount)” value in data set [1] worked out at 20.8 ± 0.9 µM. In general, IC50 refers to the midpoint of a concentration-inhibition curve. In general, inhibition refers to the drop in the measured response relative to a control, in per cent. For `CCOC(=O)CN1C(=O)/C(=C/C(=O)c2cc(OC)c(OC)c(OC)c2)c2cc(OC)ccc21` [Compound 9f, Ethyl (E)-2-(5-methoxy-2-oxo-3-(2-oxo-2-(3,4,5-trimethoxyphenyl)ethylidene)indolin-1-yl)acetate], in the data set with BV2 microglial cells, half-maximal inhibition (IC50) required 78.1 µM. In addition, in data set [1], the IC50 amounted to 10.4 µM and the inhibition at 20 µM was 68%. Regarding `CCOC(=O)CN1C(=O)/C(=C/C(=O)c2ccc(C(C)C)cc2)c2ccccc21` [Compound 4f, Ethyl (E)-2-(3-(2-(4-isopropylphenyl)-2-oxoethylidene)-2-oxoindolin-1-yl)acetate], in the data set with BV2 microglial cells, the cell viability result is given as “nearly non-cytotoxic”. For the same molecule, the “Nitrite (NO release amount)” value in data set [1] turned out to be 17.1 ± 0.3 µM. For the molecule `CCCCCCCOC(=O)CN1C(=O)/C(=C/C(=O)c2cc(OC)c(OC)c(OC)c2)c2ccccc21` [Compound 5b, Heptyl (E)-2-(2-oxo-3-(2-oxo-2-(3,4,5-trimethoxyphenyl)ethylidene)indolin-1-yl)acetate], the IC50 was 45.3 µM in the data set on BV2 microglial cells and 15.8 µM in data set [1]. In the case of `CCOC(=O)CN1C(=O)/C(=C/C(=O)c2ccc(CC)cc2)c2ccccc21` [Compound 4e, Ethyl (E)-2-(3-(2-(4-ethylphenyl)-2-oxoethylidene)-2-oxoindolin-1-yl)acetate], the “Nitrite (NO release amount)” value in data set [1] came out at 15.2 ± 0.3 µM. Still for that read-out and setting: in the case of `CCOC(=O)CN1C(=O)/C(=C/C(=O)c2ccc(OC)cc2)c2ccccc21` [Compound 4h, Ethyl (E)-2-(3-(2-(4-methoxyphenyl)-2-oxoethylidene)-2-oxoindolin-1-yl)acetate] it was 20.6 ± 0.6 µM. Still for that read-out and setting: as for `CCOC(=O)CN1C(=O)/C(=C/C(=O)c2ccc(C)cc2)c2ccccc21` [Compound 4d, Ethyl (E)-2-(2-oxo-3-(2-oxo-2-(p-tolyl)ethylidene)indolin-1-yl)acetate], the figure is 12.5 ± 0.2 µM. Consider `COC(=O)CN1C(=O)/C(=C/C(=O)c2cc(OC)c(OC)c(OC)c2)c2ccccc21` [Compound 5a, Methyl (E)-2-(2-oxo-3-(2-oxo-2-(3,4,5-trimethoxyphenyl)ethylidene)indolin-1-yl)acetate], for which the IC50 in the data set with BV2 microglial cells was 78.6 µM; in data set [1], 10.9 µM. For `CCOC(=O)CN1C(=O)/C(=C/C(=O)c2cc(OC)c(OC)c(OC)c2)c2cc(I)ccc21` [Compound 9d, Ethyl (E)-2-(5-iodo-2-oxo-3-(2-oxo-2-(3,4,5-trimethoxyphenyl)ethylidene)indolin-1-yl)acetate], in data set [1], the inhibition at 20 µM worked out at 22%. `CCOC(=O)CN1C(=O)/C(=C/C(=O)C2CC2)c2ccccc21` [Compound 4t, Ethyl (E)-2-(3-(2-cyclopropyl-2-oxoethylidene)-2-oxoindolin-1-yl)acetate]: the “Nitrite (NO release amount)” value in data set [1] turned out to be 16.7 ± 0.2 µM. As to `CCOC(=O)CN1C(=O)/C(=C/C(=O)c2ccccn2)c2ccccc21` [Compound 4s, Ethyl (E)-2-(2-oxo-3-(2-oxo-2-(pyridin-2-yl)ethylidene)indolin-1-yl)acetate], the cell viability result in the data set on BV2 microglial cells is on record as “nearly non-cytotoxic”. For the same molecule, the “Nitrite (NO release amount)” value in data set [1] was found to be 11.1 ± 0.4 µM.

Consider `CCOC(=O)CN1C(=O)/C(=C/C(=O)c2ccc(F)cc2)c2ccccc21` [Compound 4k, Ethyl (E)-2-(3-(2-(4-fluorophenyl)-2-oxoethylidene)-2-oxoindolin-1-yl)acetate], for which the “Nitrite (NO release amount)” value in data set [1] amounted to 15.2 ± 0.2 µM.

For the molecule `CCOC(=O)CN1C(=O)/C(=C/C(=O)c2ccc([N+](=O)[O-])cc2)c2ccccc21` [Compound 4n, Ethyl (E)-2-(3-(2-(4-nitrophenyl)-2-oxoethylidene)-2-oxoindolin-1-yl)acetate], the “Nitrite (NO release amount)” value in data set [1] was found to be 16.7 ± 0.3 µM. Turning to `CCCCCCCCCCCOC(=O)CN1C(=O)/C(=C/C(=O)c2cc(OC)c(OC)c(OC)c2)c2ccccc21` [Compound 5c, Undecyl (E)-2-(2-oxo-3-(2-oxo-2-(3,4,5-trimethoxyphenyl)ethylidene)indolin-1-yl)acetate], the IC50 with BV2 microglial cells was 19.8 µM; in data set [1], 6.3 µM. As to `CCOC(=O)CN1C(=O)/C(=C/C(=O)c2ccc3ccccc3c2)c2ccccc21` [Compound 4p, Ethyl (E)-2-(3-(2-(naphthalen-2-yl)-2-oxoethylidene)-2-oxoindolin-1-yl)acetate], the “Nitrite (NO release amount)” value in data set [1] is 17.0 ± 0.3 µM.

On to `CCOC(=O)CN1C(=O)/C(=C/C(=O)c2ccc(OCC)cc2)c2ccccc21` [Compound 4i, Ethyl (E)-2-(3-(2-(4-ethoxyphenyl)-2-oxoethylidene)-2-oxoindolin-1-yl)acetate], for which the “Nitrite (NO release amount)” value in data set [1] was found to be 15.3 ± 0.3 µM. Still for that read-out and setting: as for `CCOC(=O)CN1C(=O)/C(=C/C(=O)c2ccc(Cl)cc2)c2ccccc21` [Compound 4l, Ethyl (E)-2-(3-(2-(4-chlorophenyl)-2-oxoethylidene)-2-oxoindolin-1-yl)acetate], the figure is 17.5 ± 0.3 µM. As for `CCOC(=O)CN1C(=O)/C(=C/C(=O)c2ccc(-c3ccccc3)cc2)c2ccccc21` [Compound 4o, Ethyl (E)-2-(3-(2-([1,1′-biphenyl]-4-yl)-2-oxoethylidene)-2-oxoindolin-1-yl)acetate], the cell viability entry in the data set on BV2 microglial cells is reported as “nearly non-cytotoxic”. The “Nitrite (NO release amount)” value in data set [1] was found to be 19.0 ± 0.4 µM. As for `CCOC(=O)CN1C(=O)/C(=C/C(=O)c2ccc[nH]2)c2ccccc21` [Compound 4r, Ethyl (E)-2-(2-oxo-3-(2-oxo-2-(1H-pyrrol-2-yl)ethylidene)indolin-1-yl)acetate], in data set [1], the “Nitrite (NO release amount)” value came out at 20.5 ± 0.6 µM and the inhibition at 20 µM came out at 28%. Regarding `COc1cc(C(=O)/C=C2/C(=O)N(CC(=O)OCCc3ccccc3)c3ccccc32)cc(OC)c1OC` [Compound 5f, Phenethyl (E)-2-(2-oxo-3-(2-oxo-2-(3,4,5-trimethoxyphenyl)ethylidene)indolin-1-yl)acetate], the half-inhibitory concentration (IC50) in the data set on BV2 microglial cells is 42.7 µM; in data set [1], 10.7 µM. In the case of `CCOC(=O)CN1C(=O)/C(=C/C(C)=O)c2ccccc21` [Compound 4a, Ethyl (E)-2-(2-oxo-3-(2-oxopropylidene)indolin-1-yl)acetate], the “Nitrite (NO release amount)” value in data set [1] is 22.9 µM and 22.9 ± 0.5 µM. On to `CCOC(=O)CN1C(=O)/C(=C/C(=O)c2ccco2)c2ccccc21` [Compound 4q, Ethyl (E)-2-(3-(2-(furan-2-yl)-2-oxoethylidene)-2-oxoindolin-1-yl)acetate], for which, in the data set with BV2 microglial cells, the cell viability entry was “nearly non-cytotoxic”. Further, in data set [1], the “Nitrite (NO release amount)” value worked out at 20.2 ± 0.4 µM and the inhibition at 20 µM worked out at 30%.
